# Measurements published in US20180050082A1, “SERPINS FOR THE TREATMENT OF NEUROINFLAMMATORY DISEASES” (Anvil Biosciences, LLC, priority 2015, published 2018).
# “Also recorded” adds a separate entry of the source.
# Columns and labels:
# NMO mouse model = assay: Mouse NMO model, more severe disease (25×10^6 Th17-polarized cells), disease scores, blinded study (Example 3); type: in vivo, C57BL/6 mice; conditions: for End Score (end disease score +/− SD): Day 17 post-transfer, AAT 2 mg or both i.p. daily Day 4 to Day 16; for End Score (end disease score +/− SD) / MMS +/− SD (mean maximum disease score) / Mean Day of Onset +/− SEM: Mpred 0.5 mg; for MMS +/− SD (mean maximum disease score) / Mean Day of Onset +/− SEM: AAT 2 mg or both i.p. daily Day 4 to Day 16 post-transfer; for Mean Day of Onset +/− SEM: 10 mice per cohort
# Experimental: 25×10^6 cells prepared as above were adoptively transferred i.p. into recipient C57BL/6 mice. Mice received PBS, Mpred (0.5 mg), AAT (2 mg), or both AAT+Mpred as daily doses administered i.p. starting on Day 4 post-transfer until Day 16 post-transfer. Ten recipient mice per cohort. […] The bold p-values indicate significant (p<0.05) differences between the treatments when compared to PBS (control).
# [1] = test system: NMO mouse model, spines (cervical, thoracic and lumbar sections); assay: Spine histopathology scores in NMO mouse model, blinded study (Example 3); type: in vivo, C57BL/6 mice; conditions: spines collected Day 18; for Demyelination (H + E) score +/− SD: hematoxylin and eosin stained section, 4 mice per cohort
# Source text: An NMO mouse model as described above was used. Spines were collected from 4 mice per treatment cohort on Day 18 and prepared for histology. Sections from cervical, thoracic and lumbar spine regions were scored and averaged. […] Bold formatting indicates significant (p<0.05) difference of treatment compared to PBS (control).
# murine model of NMO = assay: Murine model of NMO, less severe disease (12×10^6 Th17-polarized cells), disease score (Example 2); type: in vivo, C57BL/6 mice; conditions: FIG. 2
# Experimental: Blood-derived human A1AT was compared to Sivelestat in a murine model of NMO. A less severe disease was induced when 12×10^6 Th17-polarized cells were adoptively transferred i.p. into recipient C57BL/6 mice. To induce Th17-polarized cells, C57BL/6 mice were induced with MOG35-55/CFA. 11 days later, their spleen cells were harvested and restimulated in culture with MOG35-55 peptide (Miller et al., supra) for 3 days.
# Mice received PBS, Sivelestat (0.5 mg), or A1AT (2 mg) as daily doses administered i.p. starting on Day 5 post-transfer until Day 18 post-transfer. There were 10 recipient mice per cohort. Error bars represent SEM. Points where A1AT compared to PBS and mean disease scores were significant (p<0.05) are indicated (*).
# [2] = test system: Neuromyelitis Optica (NMO) induced by the adoptive transfer of Th17 Experimental Autoimmune Encephalomyelitis (EAE) cells; assay: NMO induced by adoptive transfer of Th17 EAE cells (15×10^6 cells), clinical scores (Example 1); type: in vivo, C57BL/6 mice; conditions: 2 mg A1AT in PBS i.p. daily day 5 to day 18; vs PBS; n=10 mice per group
# Source text: C57BL/6 donor mice were immunized via subcutaneous injection with MOG-35-55 peptide in complete Freund's Adjuvant. This induces Experimental Autoimmune Encephalomyelitis (EAE), an animal model for progressive multiple sclerosis. (Miller et al., Curr. Protoc. Immunol., Chapter Unit 15.1 (2007); incorporated herein by reference in its entirety). The mice were boosted […] via intraperitoneal injection with Pertussis toxin on day 0, 2, and 7 days post-immunization. Mice were sacrificed and spleens and lymph nodes collected and resuspended into single cell suspensions. Cells were cultured with MOG peptide and IL-23 to increase Th17 skewing and cultured for 3 days. Cells were harvested and approximately 15×10̂6 cells were adoptively transferred into recipient C57BL/6 mice via intraperitoneal injection. Starting day 5 for 2 weeks until day 18, mice were administered daily via intraperitoneal injection with 100 uL of PBS or A1AT (2 mg A1AT formulated in PBS). Clinical scores were measured each day at approximately the same time of day. Clinical scores measure ascending paralysis. A score of 1 is a limp tail. A score of 2 includes hind limb weakness. A score of 3 includes hind limb paralysis. A score of 4 includes forelimb weakness. A score of 5 is indicated by death. (See Miller et al.).
# [3] = test system: spleen cells of Th17-polarized cell transplanted mice restimulated with MOG peptide; assay: Ex vivo cytokine measurements from spleen cells restimulated with MOG peptide, cytokine bead assay (Example 4); type: in vivo
# Experimental: Ex vivo cytokine measurements from spleen cells of Th17-polarized cell transplanted mice restimulated with MOG peptide were conducted to survey effector and memory recall responses of the immune cell compartment, primarily from T cells. Spleens were collected from 6 mice per treatment cohort on Day 18. Single cell suspensions were prepared and cultured with the indicated amounts of MOG35-55 peptide. Supernatants were collected after 3 days of culture and IL-17A, IFN-γ, IL-6, or IL-2 measured by cytokine bead assay (BD Biosciences, San Jose, Calif., Cat. No. 560485). The results in this blinded study were expressed in cytokine pg/mL+/−SEM.
Compound,End Score (end disease score +/− SD) (NMO mouse model),MMS +/− SD (mean maximum disease score) (NMO mouse model),Mean Day of Onset +/− SEM (NMO mouse model),Demyelination (H + E) score +/− SD [1],Apoptotic Cells +/− SD (apoptotic cell counts) ([1]; 4 mice per treatment cohort),Inflammatory foci +/− SD (number of inflammatory foci per section >20 cells) ([1]; 4 mice per treatment cohort),Onset of disease (murine model of NMO; A1AT 2 mg i.p. daily Day 5 to Day 18 post-transfer),"NMO disease score (murine model of NMO; A1AT 2 mg or Sivelestat 0.5 mg i.p. daily Day 5 to Day 18 post-transfer, vs PBS)","Mean disease scores over days measured (NMO mouse model; FIG. 3, 10 recipient mice per cohort, vs PBS or either treatment alone)",Clinical scores (ascending paralysis) [2],"IL-17A ([3]; spleens Day 18, 6 mice per cohort, supernatants after 3 days culture with MOG35-55, FIG. 5A)","IFN-γ ([3]; spleens Day 18, 6 mice per cohort, supernatants after 3 days culture with MOG35-55, FIG. 5B)","IL-2 ([3]; without antigenic restimulation (0 MOG peptide), compared to Mpred alone, FIG. 5D)"
"C[C@H]1C[C@@H]2[C@H]([C@@H](O)C[C@@]3(C)[C@H]2CC[C@]3(O)C(=O)CO)[C@@]2(C)C=CC(=O)C=C12 [Mpred, methylprednisolone, reference compound]",2.25 +/− 0.42,2.95 +/− 0.44,8.5 +/− 0.4,1.2 +/− 0.3,1.3 +/− 0.9,3.0 +/− 0.9,–,–,–,–,–,–,–
alpha-1 antitrypsin [A1AT],3.10 +/− 0.57,3.50 +/− 0.00,8.4 +/− 0.4,1.8 +/− 0.4,2.5 +/− 0.3,–,delay onset of disease,reduced the NMO disease score compared to PBS (control) and was superior to Sivelestat at all days of overt signs of disease,early efficacy compared to Mpred alone and PBS (control) on Day 5 and 6 but afterwards did not show therapeutic effect,significant improvement when compared to PBS treatment,decreased the inflammatory cytokines IL-17A compared to PBS and Mpred alone; also recorded: decreased the inflammatory cytokine IL-17A when compared to PBS and Mpred alone,decreased the inflammatory cytokine IFN-γ when compared to Mpred alone,IL-2 levels were higher without antigenic restimulation (0 MOG peptide)
